Data on 4 molecules can be found in patent US9616129B2, “Compositions and methods for potentiating immune response, enhancing immunotherapy, and increasing vaccine potency” (Nitor Therapeutics, priority 2013, dated 2017).

Assay [1] deals with B16 tumors. The assay can be described thus: Syngeneic mouse melanoma model. The assay is classed as in vivo, C57BL/6 mice. As to conditions: cyclophosphamide 100 mg/kg IP single dose. As for the experimental part:
Cancer cells were injected subcutaneously in right flank of each mouse, 1×10^4 cells in 0.1 ml PBS with 20% Matrigel. Treatment with the NTR001 was initiated on day 6 after injection of tumor cells. Tumor volume and survival were recorded every 3-4 days.

For assay [2], the system named is interferon-a (IFN-a). The note with it: healthy volunteers; oral; cited from earlier work.
Assay [3] has as its system HCV. The note with it: chronically HCV infected patients; cited from earlier work.
Assay [4] relates to tetanus toxoid vaccine. Nature of the assay: Tetanus toxoid vaccine efficacy study (adjuvant) in mice. The assay is classed as in vivo. The note with it: compared to vehicle treated group. As for the experimental part: Tetanus toxoid (TT) was used to vaccinate mice thrice, two weeks apart. Mice were treated by oral administration of compounds NTR001 and NTR002 and serum was collected at various time points for antibody titer and interferon-g analysis. Mice in Groups 2-6 (Table 2) are vaccinated subcutaneously with 0.1 ml tetanus toxoid vaccine on DAYS 0, 14 and 28. Mice in Group 1 (Table 1) received no vaccine. Antibody titers for DAYS 38 are determined by ELISA using tetanus toxoid coated microtiter plates and anti-mouse conjugate. Sera from DAY 30 are assayed by ELISA for interferon-g.

Assay [5] has as its system L. monocytogenes (ATCC Strain35152, hemolytic substrain). The assay can be described thus: Mouse model of L. monocytogenes infection. The assay is classed as in vivo. As to conditions: Balb/c mice infected i.v. with 1×10^6 CFU; treatments per Table 3; FIGS. 7 and 9.
The target in assay [6] is T1, human TLR2 (Homo sapiens, UniProt O60603).
T1 construct: expressed in transfected cells; host or cells: HEK293
T1 sequence (O60603 21-784): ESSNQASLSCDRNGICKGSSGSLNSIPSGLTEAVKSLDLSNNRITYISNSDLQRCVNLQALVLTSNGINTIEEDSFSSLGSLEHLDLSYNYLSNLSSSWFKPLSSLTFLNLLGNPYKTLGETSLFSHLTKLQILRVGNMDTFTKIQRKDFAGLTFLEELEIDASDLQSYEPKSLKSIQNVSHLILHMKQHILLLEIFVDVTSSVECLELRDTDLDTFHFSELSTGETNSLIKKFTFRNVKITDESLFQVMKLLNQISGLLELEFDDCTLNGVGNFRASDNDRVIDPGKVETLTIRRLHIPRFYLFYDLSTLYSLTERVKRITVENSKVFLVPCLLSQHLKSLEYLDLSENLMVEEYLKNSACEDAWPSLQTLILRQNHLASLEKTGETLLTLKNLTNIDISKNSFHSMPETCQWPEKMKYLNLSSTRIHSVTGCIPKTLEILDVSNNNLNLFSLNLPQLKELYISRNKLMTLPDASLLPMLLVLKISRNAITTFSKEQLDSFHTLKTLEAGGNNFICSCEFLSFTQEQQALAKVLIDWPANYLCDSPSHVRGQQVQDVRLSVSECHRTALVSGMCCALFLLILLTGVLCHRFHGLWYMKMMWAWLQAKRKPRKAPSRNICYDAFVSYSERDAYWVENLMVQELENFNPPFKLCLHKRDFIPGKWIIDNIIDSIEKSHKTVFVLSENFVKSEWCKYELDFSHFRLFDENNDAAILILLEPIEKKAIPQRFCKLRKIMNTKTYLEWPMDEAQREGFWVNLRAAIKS
Nature of the assay: TLR ligand screening, NF-κB SEAP reporter in HEK293 cells expressing TLR2. The assay is classed as cell-based. The note with it: one concentration: Guanosine 100 uM, NTR001 10 uM, Inosine 100 uM; FIG. 2. As for the experimental part: (§1) TLR stimulation is tested by assessing NF-κB activation in HEK293 cells expressing a given TLR. The Secreted Embryonic Alkaline Phosphatase (SEAP) reporter is under the control of a promoter inducible by the transcription factor NF-κB. This reporter gene allows the monitoring of signaling through the TLR, based on the activation of NF-κB. The compounds are evaluated at one concentration and compared to control ligands. This step is performed in triplicate.

Assay [7] addresses T2, human TLR4 (Homo sapiens, UniProt O00206).
T2 construct: expressed in transfected cells; host or cells: HEK293
The assay can be described thus: TLR ligand screening, NF-κB SEAP reporter in HEK293 cells expressing TLR4. The note with it: one concentration: Guanosine 100 uM, NTR001 10 uM, Inosine 100 uM; FIG. 2. The assay is classed as cell-based. As for the experimental part:
as §1

T2 sequence (O00206 24-839): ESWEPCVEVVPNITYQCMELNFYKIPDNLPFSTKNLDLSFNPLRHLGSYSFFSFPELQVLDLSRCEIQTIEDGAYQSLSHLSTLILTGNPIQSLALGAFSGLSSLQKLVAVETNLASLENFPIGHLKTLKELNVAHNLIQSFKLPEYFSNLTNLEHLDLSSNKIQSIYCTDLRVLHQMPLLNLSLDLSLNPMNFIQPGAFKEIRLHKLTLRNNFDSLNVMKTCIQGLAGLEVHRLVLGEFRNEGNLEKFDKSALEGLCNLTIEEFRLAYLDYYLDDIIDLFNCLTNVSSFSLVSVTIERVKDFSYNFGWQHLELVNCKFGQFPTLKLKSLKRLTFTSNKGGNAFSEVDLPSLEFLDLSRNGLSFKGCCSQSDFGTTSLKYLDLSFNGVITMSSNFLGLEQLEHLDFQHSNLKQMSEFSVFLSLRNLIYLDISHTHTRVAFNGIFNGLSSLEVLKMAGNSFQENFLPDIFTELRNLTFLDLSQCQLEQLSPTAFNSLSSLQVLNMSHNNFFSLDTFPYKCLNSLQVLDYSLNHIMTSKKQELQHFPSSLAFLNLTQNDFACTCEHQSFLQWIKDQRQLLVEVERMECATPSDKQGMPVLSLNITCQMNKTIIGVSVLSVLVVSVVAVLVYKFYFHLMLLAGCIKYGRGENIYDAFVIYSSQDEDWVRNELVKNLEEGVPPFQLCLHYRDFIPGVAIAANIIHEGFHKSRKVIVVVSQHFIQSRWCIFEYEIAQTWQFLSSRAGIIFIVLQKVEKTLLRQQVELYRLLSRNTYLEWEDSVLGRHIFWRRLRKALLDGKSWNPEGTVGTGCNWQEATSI
T2 sequence (Q9Y6Y9 17-160 partner limits assumed): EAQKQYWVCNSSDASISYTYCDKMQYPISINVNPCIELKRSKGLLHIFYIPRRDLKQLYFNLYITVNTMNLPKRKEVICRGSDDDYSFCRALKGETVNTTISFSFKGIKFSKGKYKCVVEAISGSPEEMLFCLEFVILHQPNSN

Turning to `O=P1(N(CCCl)CCCl)NCCCO1` (centres unmarked) [Cycicophosphamide, Cyclophosphamide], the survival in assay [1] was 30%.
For `CC(=O)O[C@@H]1C[C@@H](CO)O[C@H]1n1c(=O)sc2cnc(N)nc21` [ANA773], the “induction of endogenous interferon-a (IFN-a)” value in assay [2] is “induce endogenous interferon-a (IFN-a) of multiple subtypes”. Also, in assay [3], the “HCV RNA” value was “dose-dependent reduction”.
Consider `O=c1[nH]cnc2c(CN3C[C@H](CO)[C@@H](O)C3)c[nH]c12` [NTR002, 1,5-dihydro-7-[[(3R,4R)-3-hydroxy-4-(hydroxymethyl)pyrrolidin-1-yl]methyl]-4H-pyrrolo[3,2-d]pyrimidin-4-one], for which the serum interferon-g result in assay [4] (day 30, ELISA, high dose group 60 mg/kg p.o., FIG. 4) is given as “elevated”. In assay [4] (day 38, ELISA, p.o. 30 mg/kg (6 days of treatment) and 60 mg/kg (3 days of treatment), FIG. 3), the “serum tetanus toxoid antibody titers” value is listed as “significantly elevated”. For the same molecule, the weight loss entry in assay [5] is “significant decrease”.
Take `Nc1nc2c(ncn2[C@@H]2O[C@H](CO)[C@@H](O)[C@H]2O)c(=O)[nH]1` [Guanosine]: the “stimulatory effect on human TLR2 (NF-κB activation)” value in assay [6] is reported as “significant stimulatory effect”. For the same molecule, the “stimulatory effect on human TLR4 (NF-κB activation)” value in assay [7] is “significant stimulatory effect”.
